Reference: patent US20210161146A1, “COMPOSITIONS AND METHODS FOR INHIBITING PATHOGENS ON PLANTS” (CH2O INCORPORATED, priority 2018, published 2021)

What was measured:
Jack Frost Blight = assay: Orchard #6 field treatment of blight-infected apple trees; format: in vivo
Procedure: Apple trees at Orchard #6 infected with Jack Frost Blight (FIGS. 9A, 9B and 9C) were treated with 2 ppm (FIG. 10A), 5 ppm, 10 ppm (FIG. 10B) or 25 ppm (FIG. 10C) of ClO2. While blight was easily found in untreated areas of the block, only 2 strikes were found in the 2 ppm test area, no strikes were found in the 5 ppm area, 1 strike was found in the 10 ppm area, and 1 strike was found at the very end of the 25 ppm area (it is unclear whether that part of the area was actually treated or treated fully).

[1] = system: Red Blotch Virus (Grablovirus or GRBav); assay: Field trials on grape vines infected with Red Blotch Virus; format: in vivo
Procedure: Field trials were performed on grape vines infected with Red Blotch Virus (Grablovirus or GRBav).
Grape vines were treated with (36% 36% hydrochloric acid, 8% 60% active HEDPA, 0.5% 120 grain vinegar, 0.5% 85% phosphoric acid, and 55% water, all by weight) and (3.1% 60% active HEDPA, 1.6% 45% active potassium hydroxide, […], all by weight). ClO2 was made using a CH2O-ClO2 generator, and applied using an orchard sprayer. 200 gallons of treated water was applied per acre, and the treated water contained 15 ppm ClO2. The air temperature was 70° F.-90° F. on the days of application.
Half of the treated rows were pruned with shears dipped in water containing 30 to 50 ppm chlorine bleach.

[2] = system: Erwinia amylovora ("Fire Blight"); assay: Field experiment in apple and pear tree orchard infected with Fire Blight; format: in vivo
Procedure: An apple and pear tree orchard infected with Erwinia amylovora (“Fire Blight”) was treated with 2 ppm, 5 ppm, 10 ppm, and 25 ppm ClO2 as described herein. Previous unsuccessful treatments included foliar medications and metal (Cu) suspended in oil, and Tetramyacin and Oxytetracycline application. These are very expensive medication option(s) that are becoming obsolete w/resistance.
The treatment protocol at this orchard included a three step approach: a) irrigation water; b) topical application before first bloom (e.g., begin topical treatment before primary bloom event and all the way through second blooming event); and c) ooze treatment/vector suppression. Given the timing of this trial, only step C is relevant.
Trees were sprayed when the temperature reached a minimum of 50° F. The temperature for treating bacterial ooze should be between 75-90° F., with highest “safe” rates of ClO2 used to prevent spread through insect and pollination activity. The residual phosphorus (from phosphonates) should have lasting protection properties even days after a topical application.
Rows were marked based on the concentration of ClO2 to be applied. Each concentration rate was applied slowly over four rows of trees. Two rows of trees were left untreated between each of the treated rows to prevent drift. After an application at a particular concentration was complete, the pump speed was increased or decreased to adjust the ClO2 concentration for the next application.

[3] = system: Erwinia amylovora ("Fire Blight"); settings: before the ClO2 trial; cited from earlier work

Row | Molecule | blight strikes found in test area (Jack Frost Blight; 2 ppm ClO2 test area) [strikes] | blight strikes found in test area (Jack Frost Blight; 5 ppm ClO2 area) | blight strikes found in test area (Jack Frost Blight; 10 ppm ClO2 area) [strike] | blight strikes found in test area (Jack Frost Blight; 25 ppm ClO2 area, very end (unclear whether treated fully)) [strike] | less GRBav than the untreated control area ([1]; 15 ppm ClO2, 200 gallons per acre, pruned with ClO2-sanitized shears) | less virus than the untreated control area ([1]; 15 ppm ClO2, 200 gallons per acre, pruned with shears dipped in chlorine bleach) | reduction in the amount of virus on the grape plants ([1]; 15 ppm ClO2, both pruning groups) | new blight strikes observed ([2]; 2 ppm zone) | new blight found ([2]; remaining test zones (5 ppm, 10 ppm, 25 ppm)) | ClO2 concentration effective for disease control ([2]; topical spray on infected trees) [ppm] | outcome of previous treatments of the orchard [3]
1 | [O][Cl+][O-] [ClO2, chlorine dioxide] | 2 | no strikes | 1 | 1 | approximately 85% | approximately 75% | 75-85% | One | no new blight | ≥ 5 | –
2 | Tetramyacin | – | – | – | – | – | – | – | – | – | – | unsuccessful
